Test results as given in a melting point compilation (Tetko et al.; mined from patent text by program, amines drawn as free bases though some values may be those of a salt).

Structure (SMILES)	melting point
O=c1cc(-c2ccccc2)oc2cc(OCCCCCCN3CCC(O)CC3)ccc12	130 to 131 °C
CCn1c(=O)n(CCCCC(C)=O)c(=O)c2cnn(C)c21	112 °C
CCN1c2ncccc2C(SC)=Nc2c(C)cc(C)nc21	130 to 132 °C
N#CCc1cccc(Cn2ccc(OCc3ccc(F)cc3F)c(Br)c2=O)c1	120 to 121 °C
CCCc1c(OCCCOc2ccccc2C(=O)NCCCCc2cccnc2)ccc(C(C)=O)c1O	104 to 107 °C
CC(C)C(=O)N1C(=O)C2C=CC1C2 (stereo not given)	41 to 42 °C
Oc1ccc(C2CCOCC2)cc1	164 °C
Cn1c(C(=O)NC(CF)Cc2ccccc2)cc2c(O)cccc21 (stereo not given)	161 to 162 °C
O=c1n(-c2ccc(OCC(F)(F)C(F)F)cc2)cnn1CC(O)(Cn1cncn1)c1ccc(F)cc1F (racemic)	79 to 80 °C
C/C(=C(\C#N)C(N)=S)N1CCCCC1	161 to 166 °C
COc1cccc(OCC2CC2)c1-c1cc(C(=O)C2(C(=O)O)C3CC4CC(C3)CC2C4)nn1-c1ccnc2cc(Cl)ccc12 (stereo not given)	200 °C
O=C(NN1CCCCC1)c1nc(-c2ccc(Cl)cc2Cl)c(-c2ccc(Cl)cc2)o1	165 °C
Cc1cc(F)ccc1-c1nc(NC2CCCCC2)nc2c1ccc(=O)n2-c1ccccc1F	181 to 182 °C
CCC(=O)OC1C(CO)OC(n2cnc3c(N)ncnc32)C1OC(=O)CC (stereo not given)	172 to 173 °C
CCCN(CCC)CCC1=CC(=O)CCC1	95 to 97 °C
Cc1nnc(-c2ccc(F)cc2F)n2nc(OCc3ncnn3C)c(-c3ccsc3)c12	144 to 146 °C
COCCOc1nc2cc(-c3ccc(Cl)cc3)nnc2c2ccccc12	148 to 150 °C
CCCc1nn(-c2ccc(C(F)(F)F)cn2)cc1CCCOc1c(CC)cccc1CC(=O)O	146 to 147 °C
O=C1c2cccc3cccc(c23)C(=O)N1CCCCCBr	113 to 115 °C
OC1(Cc2ccccc2)CCN(CCC(c2ccccc2)(c2ccccc2)c2ccccc2)CC1	72 to 74 °C

Structure (SMILES)	melting point
CCc1nc2ccccc2c2ccc(F)cc12	105 to 106 °C
CC(C)Oc1c(F)c(F)cc2c(=O)c(C(=O)O)cn(-c3cc(N)c(F)cc3F)c12	217 to 222 °C
CCCn1c(=O)c2ccc(NC(=O)CC3CCCC3)cc2n1Cc1ccc(C(=O)O)cc1OC	122 to 125 °C
O=C1CCC(c2ccc(OC3CCN(C4CCC4)CC3)cc2F)=NN1	> 300 °C
O=C(CNc1ccc(F)cc1)Nc1c(Cl)ccc2nc(N3CC[C@@H](O)C3)ccc12	242 to 246 °C
Cc1c(O)ccc(C(=O)c2ccccc2F)c1C	131 to 132 °C
NC(=O)CNC(=O)c1cccc(-c2cccc3oc(Cc4ccc(F)c(Cl)c4)cc23)c1	155 to 156 °C
CCCCc1c(Cl)nc(C)nc1Cl	50 to 51 °C
O=C1O[C@@H](COc2cnsn2)CN1c1ccc(N2C[C@@H]3C[C@H]2CN3Cc2ccccc2)c(F)c1	97 to 98 °C
CN(C)c1ccc(Nc2cccc3c2C(=O)N(C2CCC(=O)NC2=O)C3=O)cc1 (stereo not given)	> 260 °C
Cc1nc2ccccc2nc1OCc1nc(Cl)cc(N2CCCC2)n1	136 to 140 °C
CC(=O)NC(C)c1c[nH]c(C)n1 (stereo not given)	125 to 128 °C
COC1=C(OC)C(=O)C2=C(CC(CCCCCCCC(=O)O)(c3ccccc3)C2)C1=O	63 to 66 °C
CNCC(O)c1cccc(Cl)c1 (stereo not given)	95.5 to 97 °C
COc1ccc(N2CCN(c3ccc(N)nc3-c3ccc(C)cc3)CC2)cc1	193 to 200 °C
CC(=O)OCC1OC(OS(C)(=O)=S)C(OC(C)=O)C(OC(C)=O)C1OC(C)=O (stereo not given)	118 to 119 °C
O=C(NCC1(O)CCCCCC1)c1cc(-c2ncc(Cl)cc2C(=O)O)ccc1Cl	201 to 204 °C
N#Cc1ccc2c(c1)Sc1cc3c(cc1C=C2)CCC3	142 to 143 °C
CCn1cc(C(=O)NCc2ccc(Cl)cc2)c(=O)c2cc(C#CCOC(=O)CCC(=O)O)sc21	180 to 182 °C
O=C(Cc1ccc(-c2ccc(F)cc2F)c(F)c1)NO	149 to 150 °C

Structure (SMILES)	melting point
O=C(Cc1c(-c2ccccc2)c2cc(O)c(Cl)cc2oc1=O)Nc1ccc(F)cc1C(F)(F)F	240 to 243 °C
O=C(O)c1conc1-c1ccccc1	163 to 164 °C
CSCc1cc(O)nc(CSC)n1	101 to 102 °C
CCCC(=O)C=CC(=O)O	100 to 102 °C
COc1cc(F)ccc1C(=O)NCCN1CCC(O)(c2ccc(Cl)cc2)CC1	157 °C
COc1nc(C2CC2)nc(C(Cl)(Cl)Cl)n1	49 to 51 °C
CCCCCCCCCCCCCC(=O)c1cc(O)c(C)c(C)c1O	100 °C
CC(C)n1nc(-c2sc(NC(=O)Cc3ccccc3)nc2-c2ccccc2)ccc1=O	250 to 252 °C
CCCn1nc2c(N)nc3ccccc3c2c1CCCc1cc(C)no1	183 to 184 °C
CCOC(=O)c1cn(CC)c2nc(N3CCN(c4ccccc4)CC3)ncc2c1=O	186 °C
COc1c(Cl)ccc(-c2nc(C=O)c(Cl)c(N)c2F)c1F	192 to 196 °C
O=C(Nc1cc(Cl)ncn1)c1ccccc1SSc1ccccc1C(=O)Nc1cc(Cl)ncn1	254 to 256 °C
CNc1cc(OC)c(C(=O)NCC23CCCN(CCC2)C3)cc1Cl	188 to 190 °C
CCc1nc2c(N)nc3ccccc3c2n1CCOCCN	144 to 146 °C
CC(C)n1nc(-c2c(-c3ccccc3)nc(N)nc2N2CCCC2)ccc1=O	> 300 °C
COc1cc2c(cc1OC)CCC(C(=O)NO)=C2	179 to 180 °C
N#Cc1ccc(-c2ccc(-c3ccc(Br)o3)o2)nc1	143 to 145 °C
CCc1nn(Cc2noc(O)n2)c(CC)c1Oc1cc(Cl)cc(Cl)c1	94 to 96 °C
COc1cc2c(cc1N1CCNCC1)N(C(=O)c1ccc(-c3ccc(-c4noc(C)n4)cc3C)cc1)CC2	153 to 155 °C
Nc1ccc(-c2ncnn2-c2ccc(Br)cc2)cc1	128 to 130 °C

The remaining lines, values ahead:

melting point	Structure (SMILES)
37 to 38 °C	CCOC(=O)Cc1nc(-c2ccccc2)oc1C(C)C
163 to 165 °C	CC(=O)c1c(CO)[nH]c(-c2ccncc2)c1C
188 to 191 °C	CC(=O)NC[C@H]1CN(c2ccc(C3=CCN(C(=O)COC(C)=O)CC3)c(F)c2)C(=O)O1
95 to 100 °C	CC(=O)Oc1cccc2oc(C(=O)OCc3ccc(Cl)cc3)c(C)c12
149 to 150 °C	CC(C)c1cc(O)cc2c1C(=O)N(CCl)S2(=O)=O
164 to 166 °C	CCOC(=O)N1CCc2c(sc3nc(-c4ccc(F)cc4)cn23)C1
182 to 183 °C	CS(=O)(=O)Nc1cc2occc(=O)c2cc1Oc1ccc(F)cc1F
177 to 178 °C	CNC(=S)NN1Cc2c(C)ccc(C)c2C1
> 250 °C	Cc1c(-c2cc(Cl)cc(Cl)c2)ccc2nc(N)nc(N)c12
203 °C	Cc1nc2c(NCc3c(C)cccc3C)cc(C(=O)N(C)C)cc2[nH]1
151 to 152 °C	Cc1cc(C2(C(F)(F)F)CN(c3ccc(C(=O)NCC(F)(F)F)cc3)CO2)ccc1F (stereo not given)
118 to 119 °C	CC(=O)OC1C(=O)NC1c1ccco1 (stereo not given)
> 320 °C	Cn1nnnc1-c1cn(C)c2cc(O)ccc2c1=O
106 °C	CCOC(=O)[C@H](C)NC(=O)CCc1cc(Cl)ccc1C(=O)CCCNC(C)=O
106 to 108 °C	COc1cc2cc(C)c(CO)c(-c3ccnc(Br)c3)c2cc1OC
190 °C	CN(Cc1ccccc1C(F)(F)F)C1CCN(c2ccc(OC[C@@]3(C)Cn4cc([N+](=O)[O-])nc4O3)cc2)CC1
232 to 233 °C	COc1cccnc1C(O)c1ccc(NC(=O)C2=Cc3cc(-c4ccc(C)cc4)ccc3OCC2)cc1 (stereo not given)
130 to 131 °C	CC(C)(C)OC(=O)NC[C@H]1CC[C@H](NC(=O)OCc2ccccc2)CC1
173 to 175 °C	CCOP(=O)(OCC)C(O)[C@H](CC1CCCCC1)NC(=O)[C@H](CC(C)C)NC(=O)[C@H](Cc1ccccc1)NC(=O)OC(C)(C)C (stereo not given in full)
99 to 100 °C	CCCn1cc(Cc2ccc(C(=O)OC)cc2OC)c2cc(C=O)ccc21

melting point	Structure (SMILES)
132 °C	CCOC(=O)c1cnn(-c2cccc(Cl)c2)c1C(N)=O
142 to 143 °C	CCn1nc(C)c(CN(C(=O)C2CCCc3ccccc32)c2ccc(C(C)C)cc2)c1C (stereo not given)
190 to 192 °C	COc1ccc(C2=N[C@H](c3ccccc3)CO2)cc1C#CCN(O)C(N)=O
187 to 189 °C	CCOC(=O)NCc1cccc(C(=O)OC)c1C(=O)OC
103 to 104 °C	CCCCc1c(C(C)C)nc(C(C)C)c(C(C)O)c1-c1ccc(F)cc1 (stereo not given)
63 to 64.5 °C	CC1=C2OCOC2CC(C)(C)C1(O)C[Si](C)(C)C (stereo not given)
34 to 35 °C	CNc1ccccc1C(C)=O
218 °C	CONC(=O)c1ccccc1S(=O)(=O)NC(=O)Nc1nc(C)cc(C)n1
62 to 65 °C	CC(C)n1c(/C=C/C(O)CC(O)CC(=O)OC(C)(C)C)c(-c2ccc(F)cc2)c2ncccc21 (stereo not given)
240 to 242 °C	CCCNC(=O)C=Cc1ccc2ccn(Cc3ccc(C(=O)NS(=O)(=O)c4ccccc4C)cc3OC)c2c1
41.4 °C	O=C(CCCI)c1ccc(F)cc1O
33 to 34 °C	CC(C)(C)c1ccc(/C=C/CO[Si](C)(C)C(C)(C)C)cc1[N+](=O)[O-]
208 to 210 °C	CCN(Cc1cc(Br)ccc1N)c1ccc(C(N)=O)nn1
174 to 176 °C	CCOC(=O)C1(Sc2ccccc2[N+](=O)[O-])Cc2ccc(N(C)C)cc2NC1=O (stereo not given)
156 to 157 °C	CSc1ccc(COc2cc(S(=O)(=O)C(C)C)cc(C#N)c2N)nc1
100 to 103 °C	O=C(O)Cc1cc(C(=O)c2ccc(I)c([N+](=O)[O-])c2)sc1-c1ccccc1
176 to 178 °C	CC(C)(C)OC(=O)/C=C/c1cccc(-c2nc(=O)c3ccccc3s2)n1
140 to 141 °C	O=CN(O)C(CC1CCC2(CC1)OCCO2)CS(=O)(=O)c1ccc(Oc2ccc(OC(F)(F)F)cc2)cc1 (stereo not given)
40 to 42 °C	C#CCOc1ccccc1-n1cnc2cc(N)ccc21
> 300 °C	O=C(O)c1nc2cc(N3CCCCC3)c([N+](=O)[O-])cc2[nH]c1=O
